Data as given in the NIST ThermoML archive (doi:10.1021/je5002945).
Numbers after ± are expanded uncertainties.

Details: 101.33 kPa, Liquid, Vibrating tube method

Q: For CCCCN(C=O)CCCC [N,N-dibutylformamide], which mass density (293.15 K) is on record?
A: The mass density was 879.05 ± 0.23 kg/m3.

Q: What about the mass density (298.15 K) of the same compound?
A: Its mass density is 875.12 ± 0.23 kg/m3.

Q: What about the mass density (303.15 K) of the same compound?
A: The mass density was 871.17 ± 0.23 kg/m3.

Q: And the mass density (308.15 K)?
A: The mass density was 867.15 ± 0.23 kg/m3.

Q: And the mass density (313.15 K)?
A: Its mass density is 863.11 ± 0.23 kg/m3.

Q: And the mass density (318.15 K)?
A: Its mass density is 859.01 ± 0.23 kg/m3.

Q: What about the mass density (323.15 K) of the same compound?
A: The mass density was 854.82 ± 0.23 kg/m3.

Q: For CC(=O)N(C)C [N,N-dimethylethanamide], which mass density (293.15 K) is on record?
A: The mass density was 940.92 ± 0.23 kg/m3.

Q: And the mass density (298.15 K)?
A: The mass density was 936.3 ± 0.23 kg/m3.

Q: What about the mass density (303.15 K) of the same compound?
A: Its mass density is 931.62 ± 0.23 kg/m3.

Q: And the mass density (308.15 K)?
A: Its mass density is 926.89 ± 0.23 kg/m3.

Q: What about the mass density (313.15 K) of the same compound?
A: Its mass density is 922.09 ± 0.23 kg/m3.

Q: And the mass density (318.15 K)?
A: Its mass density is 917.23 ± 0.23 kg/m3.

Q: And the mass density (323.15 K)?
A: The mass density was 912.23 ± 0.23 kg/m3.

Q: For CCNC=O [N-ethylformamide], which mass density (293.15 K) is on record?
A: Its mass density is 951.59 ± 0.23 kg/m3.

Q: And the mass density (298.15 K)?
A: The mass density was 947.48 ± 0.23 kg/m3.

Q: What about the mass density (303.15 K) of the same compound?
A: Its mass density is 943.29 ± 0.23 kg/m3.

Q: And the mass density (308.15 K)?
A: The mass density was 939.04 ± 0.23 kg/m3.

Q: What about the mass density (313.15 K) of the same compound?
A: The mass density was 934.78 ± 0.23 kg/m3.

Q: What about the mass density (318.15 K) of the same compound?
A: Its mass density is 930.45 ± 0.23 kg/m3.

Q: And the mass density (323.15 K)?
A: The mass density was 926.06 ± 0.23 kg/m3.

Q: For CNC=O [N-methylformamide], which mass density (293.15 K) is on record?
A: Its mass density is 1003.35 ± 0.23 kg/m3.

Q: What about the mass density (298.15 K) of the same compound?
A: The mass density was 998.91 ± 0.23 kg/m3.

Q: And the mass density (303.15 K)?
A: The mass density was 994.49 ± 0.23 kg/m3.

Q: What about the mass density (308.15 K) of the same compound?
A: The mass density was 990.01 ± 0.23 kg/m3.

Q: And the mass density (313.15 K)?
A: Its mass density is 985.47 ± 0.23 kg/m3.

Q: And the mass density (318.15 K)?
A: Its mass density is 980.88 ± 0.23 kg/m3.

Q: And the mass density (323.15 K)?
A: The mass density was 976.24 ± 0.23 kg/m3.

Q: Which results are given for CN(C)C=O [dimethylformamide]?
A: mass density (293.15 K): 948.72 ± 0.07 kg/m3; mass density (298.15 K): 943.86 ± 0.07 kg/m3; mass density (303.15 K): 939 ± 0.07 kg/m3; mass density (308.15 K): 934.08 ± 0.07 kg/m3; mass density (313.15 K): 929.13 ± 0.08 kg/m3; mass density (318.15 K): 924.06 ± 0.08 kg/m3; mass density (323.15 K): 918.96 ± 0.08 kg/m3
